Assays:
[1] = target: Tartrate-resistant acid phosphatase type 5 (Homo sapiens) (UniProt P13686); assay: Tested for inhibition of human Osteoclastic acid phosphatase (OAP), purified from the spleen of a patient with hairy cell leukemia at 100 uM
[2] = organism: Mus musculus; assay: Tested for percentage inhibition of PTH stimulated bone resorption in neonatal mouse calvaria placed in culture, at 10 uM concentration; type: functional
[3] = organism: Mus musculus; assay: Compound was tested for thymidine incorporation at 10 uM concentration; type: functional
[4] = organism: Mus musculus; assay: Compound was evaluated for thymidine incorporation at 100 uM concentration using [H3 thymidine] as radioligand; type: functional
[5] = organism: Mus musculus; assay: Compound was evaluated for thymidine incorporation at 10 uM concentration using [H3 thymidine] as radioligand; type: functional
[6] = organism: Mus musculus; assay: Tested for percentage inhibition of PTH stimulated bone resorption in neonatal mouse calvaria placed in culture, at 100 uM concentration; type: functional
[7] = organism: Mus musculus; assay: Tested for percentage inhibition of PTH stimulated bone resorption in neonatal mouse calvaria placed in culture, at 1 uM concentration; type: functional
[8] = organism: Mus musculus; assay: Compound was evaluated for thymidine incorporation at 1 uM concentration using [H3 thymidine] as radioligand; type: functional
[9] = organism: Mus musculus; assay: Compound was tested for the percentage inhibition of PTH stimulated bone resorption in neonatal mouse calvaria placed in culture, at 100 uM concentration; type: functional
[10] = organism: Mus musculus; assay: Compound was tested for thymidine incorporation at 500 uM concentration using [H3 thymidine] as radioligand; type: functional
[11] = organism: Mus musculus; assay: Compound was tested for the percentage inhibition of PTH stimulated bone resorption in neonatal mouse calvaria placed in culture, at 500 uM concentration; type: functional

Sequence of Tartrate-resistant acid phosphatase type 5 (Homo sapiens) (P13686 whole entry, looked up): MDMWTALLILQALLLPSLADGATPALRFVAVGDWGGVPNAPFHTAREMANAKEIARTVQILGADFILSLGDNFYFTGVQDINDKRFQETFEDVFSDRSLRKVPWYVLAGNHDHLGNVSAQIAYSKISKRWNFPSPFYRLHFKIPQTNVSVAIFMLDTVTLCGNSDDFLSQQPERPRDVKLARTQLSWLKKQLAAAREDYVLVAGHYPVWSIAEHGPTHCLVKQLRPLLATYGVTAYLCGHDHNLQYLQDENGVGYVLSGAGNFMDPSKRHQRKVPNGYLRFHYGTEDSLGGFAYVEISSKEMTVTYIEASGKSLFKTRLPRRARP

## O=P(O)(O)Cc1ccc2ccccc2c1
[1]
  inhibition: 4%

## O=P(O)(O)C(CC1CCCCC1)c1cccc2ccccc12 (centres undefined)
[1]
  inhibition: 73%

## O=P(O)(O)Cc1ccccc1
[1]
  inhibition: 0%

## Cc1ccc2ccccc2c1C(CC1CCCCC1)P(=O)(O)O (centres undefined)
[1]
  inhibition: 90%

## O=P(O)(O)C(Cc1ccccc1)c1ccc2ccccc2c1 (centres undefined)
[1]
  inhibition: 19%

## O=C(c1ccccc1)C(C(=O)c1ccccc1)(c1cccc2ccccc12)P(=O)(O)O
[1]
  inhibition: 96%

## O=P(O)(O)C(Cl)(Cl)P(=O)(O)O [CLODRONIC ACID]
[2]
  Inhibition: 95.6%
[3]
  Control: 104%

## ORTHOVANADATE
[4]
  Control: 0.4%
[5]
  Control: 94%
[2]
  inhibition: 72.7%
[6]
  inhibition: 130%
[7]
  inhibition: 31.3%
[8]
  Control: 127%

## O=P(O)(O)C(Cc1ccc(Cl)cc1)c1cccc2ccccc12 (centres undefined)
[9]
  Inhibition: 31.9%
[10]
  Control: 76%
[1]
  inhibition: 94%
[11]
  Inhibition: 101.8%

## O=[N+]([O-])c1ccc(CC(c2cccc3ccccc23)P(=O)(O)O)cc1 (centres undefined)
[1]
  inhibition: 80%

## O=C(c1ccc2ccccc2c1)C(c1cccc2ccccc12)P(=O)(O)O (centres undefined)
[1]
  inhibition: 95%

## O=P(O)(O)C(Cc1ccccc1)c1ccccc1 (centres undefined)
[1]
  inhibition: 15%

## O=P(O)(O)Cc1cccc2ccccc12
[1]
  inhibition: 64%

## Cc1ccc2ccccc2c1CP(=O)(O)O
[1]
  inhibition: 20%

## O=P(O)(O)C(Cc1ccccc1)c1cccc2ccccc12 (centres undefined)
[1]
  inhibition: 92%

## O=P(O)(O)C(Cc1ccc(-c2ccccc2)cc1)c1cccc2ccccc12 (centres undefined)
[1]
  inhibition: 100%

## COc1ccc(CC(c2cccc3ccccc23)P(=O)(O)O)cc1 (centres undefined)
[1]
  inhibition: 73%

## O=P(O)(O)C(Cc1ccc(Cl)cc1)(Cc1ccc(Cl)cc1)c1cccc2ccccc12
[1]
  inhibition: 87%

## Cc1ccc(CC(c2cccc3ccccc23)P(=O)(O)O)cc1 (centres undefined)
[1]
  inhibition: 75%

## O=P(O)(O)C(O)c1cccc2ccccc12 (centres undefined)
[1]
  inhibition: 10%

Reference: ChEMBL document CHEMBL1151540, “1-Naphthylmethylphosphonic acid derivatives as osteoclastic acid phosphatase inhibitors” (Bioorg Med Chem Lett, 1995)
